Measurements reported in ChEMBL document CHEMBL4339250 (J Nat Prod, 2019).
Active and inactive are the calls of the source. No cut-off for these calls is given here.

Tests used:
[1] = system: HUVEC; experiment: (§1) Anti-inflammatory activity in HUVEC assessed as reduction in TNFalpha-stimulated neutrophil-HUVEC interactions by measuring decrease in neutrophil adhesion to endothelial cells at 1 uM pretreated for 20 hrs before TNFalpha stimulation for 24 hrs using freshly isolated neutrophils perfused over endothelial monolayers for 5 mins by phase contrast microscopy; format: functional, cell-based; conditions: Homo sapiens
[2] = target: T1, Peroxisome proliferator-activated receptor gamma (Homo sapiens, UniProt P37231); experiment: Agonist activity at human PPARgamma expressed in African green monkey COS7 cells assessed as increase in receptor transcriptional activity by luciferase reporter gene assay relative to rosiglitazone; format: cell-based
T1 sequence (P37231 whole entry): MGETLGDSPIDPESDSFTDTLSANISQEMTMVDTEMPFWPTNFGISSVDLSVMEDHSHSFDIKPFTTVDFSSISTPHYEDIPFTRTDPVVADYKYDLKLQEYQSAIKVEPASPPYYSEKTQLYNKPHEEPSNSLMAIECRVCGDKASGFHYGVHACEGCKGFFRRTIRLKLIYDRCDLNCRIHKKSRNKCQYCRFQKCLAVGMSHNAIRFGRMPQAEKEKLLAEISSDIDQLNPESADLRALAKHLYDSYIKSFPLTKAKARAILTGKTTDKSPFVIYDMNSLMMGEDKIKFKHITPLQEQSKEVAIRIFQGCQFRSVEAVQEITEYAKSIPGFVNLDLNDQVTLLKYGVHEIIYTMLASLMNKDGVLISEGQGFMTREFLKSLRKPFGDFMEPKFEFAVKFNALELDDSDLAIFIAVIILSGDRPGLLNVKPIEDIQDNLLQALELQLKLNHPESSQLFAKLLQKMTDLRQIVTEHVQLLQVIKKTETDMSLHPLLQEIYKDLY

[3] = target: T2, Peroxisome proliferator-activated receptor alpha (Homo sapiens) (UniProt Q07869); experiment: Agonist activity at human PPARalpha expressed in African green monkey COS7 cells assessed as increase in receptor transcriptional activity at 10 uM by luciferase reporter gene assay relative to WY-14643; format: cell-based
T2 sequence (whole entry): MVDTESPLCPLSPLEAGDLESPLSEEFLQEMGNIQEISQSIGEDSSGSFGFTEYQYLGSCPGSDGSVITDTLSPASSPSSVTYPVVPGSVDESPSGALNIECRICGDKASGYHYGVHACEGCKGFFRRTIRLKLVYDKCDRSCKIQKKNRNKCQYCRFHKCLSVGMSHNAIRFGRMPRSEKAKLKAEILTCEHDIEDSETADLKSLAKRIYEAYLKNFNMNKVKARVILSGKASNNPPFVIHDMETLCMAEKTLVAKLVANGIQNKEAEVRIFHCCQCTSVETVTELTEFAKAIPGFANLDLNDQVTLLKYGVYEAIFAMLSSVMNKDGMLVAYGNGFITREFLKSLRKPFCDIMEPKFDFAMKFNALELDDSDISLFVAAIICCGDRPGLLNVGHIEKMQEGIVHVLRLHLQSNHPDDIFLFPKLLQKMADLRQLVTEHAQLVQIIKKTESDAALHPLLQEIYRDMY

[4] = target: T3, Peroxisome proliferator-activated receptor gamma (Homo sapiens) (UniProt P37231); conditions: at 10 µM
T3 sequence (whole entry): T1 sequence (P37231 whole entry)

[5] = target: T4, Peroxisome proliferator-activated receptor alpha (Homo sapiens, UniProt Q07869); experiment: Agonist activity at human PPARalpha expressed in African green monkey COS7 cells assessed as increase in receptor transcriptional activity by luciferase reporter gene assay relative to WY-14643; format: cell-based
T4 sequence (Q07869 whole entry): T2 sequence (whole entry)

[6] = system: HUVEC; experiment: as §1, with “mononuclear leukocyte” for “neutrophil adhesion”, “treated” for “pretreated”, “28” for “20”, “post 48 hrs after PPARalpha siRNA transfection followed by” for “before”, “mononuclear leukocytes” for “neutrophils”; format: functional, cell-based; conditions: Homo sapiens
[7] = system: HUVEC; experiment: Cytotoxicity against HUVEC assessed as reduction in cell viability at 30 uM incubated for 24 hrs by MTT assay; format: cell-based; conditions: human
[8] = system: Neutrophil; experiment: Cytotoxicity against human neutrophils assessed as reduction in cell viability at 30 uM incubated for 24 hrs by MTT assay; format: cell-based
[9] = system: HUVEC; experiment: as §1, with “mononuclear leukocyte” for “neutrophil adhesion”, “treated” for “pretreated”, “post 48 hrs after control siRNA transfection followed by” for “before”, “mononuclear leukocytes” for “neutrophils”; format: functional, cell-based; conditions: Homo sapiens
[10] = system: HUVEC; experiment: as §1, with “mononuclear leukocyte” for “neutrophil adhesion”, “cells” for “cells at 1 uM”, “mononuclear leukocytes” for “neutrophils”; format: functional, cell-based; conditions: Homo sapiens
[11] = system: HUVEC; experiment: as §1, with “mononuclear leukocyte” for “neutrophil adhesion”, “mononuclear leukocytes” for “neutrophils”; format: functional, cell-based; conditions: Homo sapiens
[12] = system: Neutrophil; experiment: Induction of apoptosis in human neutrophils at 30 uM incubated for 24 hrs by annexin V-FITC and propidium iodide staining based flow cytometry; format: cell-based
[13] = target: RXR alpha/PPAR gamma (Homo sapiens) (UniProt P37231+P19793); experiment: Induction of RXRalpha/PPARgamma interaction in HUVEC at 10 uM pretreated for 20 hrs before TNFalpha stimulation by immunoprecipitation and Western blotting analysis; format: cell-based
[14] = system: HUVEC; experiment: as §1, with “mononuclear leukocyte” for “neutrophil adhesion”, “10” for “1”, “treated” for “pretreated”, “post 48 hrs after PPARalpha siRNA transfection followed by” for “before”, “mononuclear leukocytes” for “neutrophils”; format: functional, cell-based; conditions: Homo sapiens
[15] = system: HUVEC; experiment: Induction of apoptosis in HUVEC at 30 uM incubated for 24 hrs by annexin V-FITC and propidium iodide staining based flow cytometry; format: cell-based; conditions: human
[16] = Cytotoxicity against HUVEC assessed as cell viability at 30 uM incubated for 24 hrs by MTT assay; format: cell-based; conditions: human, HUVEC cells; read-out: Activity
[17] = system: HUVEC; experiment: as §1, with “mononuclear leukocyte” for “neutrophil adhesion”, “10” for “1”, “treated” for “pretreated”, “post 48 hrs after PPARgamma siRNA transfection followed by” for “before”, “mononuclear leukocytes” for “neutrophils”; format: functional, cell-based; conditions: Homo sapiens
[18] = system: HUVEC; experiment: as §1, with “mononuclear leukocyte” for “neutrophil adhesion”, “10” for “1”, “mononuclear leukocytes” for “neutrophils”, “mins in presence of PPARalpha antagonist GW6471” for “mins”; format: functional, cell-based; conditions: Homo sapiens
[19] = system: HUVEC; experiment: as §1, with “mononuclear leukocyte” for “neutrophil adhesion”, “10” for “1”, “treated” for “pretreated”, “post 48 hrs after control siRNA transfection followed by” for “before”, “mononuclear leukocytes” for “neutrophils”; format: functional, cell-based; conditions: Homo sapiens
[20] = Cytotoxicity against human neutrophils assessed as cell viability at 30 uM incubated for 24 hrs by MTT assay; format: cell-based, Neutrophil; conditions: read-out: Activity
[21] = system: HUVEC; experiment: as §1, with “mononuclear leukocyte” for “neutrophil adhesion”, “10” for “1”, “mononuclear leukocytes” for “neutrophils”, “mins in presence of PPARgamma antagonist GW9662” for “mins”; format: functional, cell-based; conditions: Homo sapiens
[22] = system: HUVEC; experiment: as §1, with “mononuclear leukocyte” for “neutrophil adhesion”, “10” for “1”, “treated” for “pretreated”, “post 48 hrs after RXRalpha siRNA transfection followed by” for “before”, “mononuclear leukocytes” for “neutrophils”; format: functional, cell-based; conditions: Homo sapiens
[23] = system: Neutrophil; experiment: Cytotoxicity against human neutrophils assessed as induction of cell damage at 30 uM incubated for 24 hrs by MTT assay; format: cell-based
[24] = system: HUVEC; experiment: Cytotoxicity against HUVEC assessed as induction of cell damage at 30 uM incubated for 24 hrs by MTT assay; format: cell-based; conditions: human

Q: For `Cc1cccc(Nc2cc(Cl)nc(SCC(=O)O)n2)c1C` [PIRINIXIC ACID], which Activity [1] is on record?
A: inactive

Q: What about the EC50 [2] of the same molecule?
A: Not Active

Q: For `CCCOc1cc(C)c2c(c1)CC[C@@](C)(CC/C=C(\C)CC/C=C(\C)C(=O)O)O2`, which Efficacy [3] is on record?
A: 191%

Q: And the Efficacy [4]?
A: 88%

Q: And the EC50 ([2]; read-out: EC50)?
A: 1.69 µM

Q: What about the EC50 ([5]; read-out: EC50) of the same molecule?
A: 1 µM

Q: What does the source list for `CN(CCOc1ccc(CC2SC(=O)NC2=O)cc1)c1ccccn1` (stereo unspecified) [ROSIGLITAZONE]?
A: Efficacy [3]: inactive; Activity [6]: Active; Activity [7]: Toxic; Activity [8]: Toxic; Activity [9]: Active; Activity [1]: inactive; inhibition [10]: Dose-dependent effect; Activity [11]: Active; EC50 [5]: Not Active

Q: For `C/C(=C\CC[C@]1(C)CCc2cc(O)cc(C)c2O1)CC/C=C(\C)C(=O)O`, which Activity [12] is on record?
A: Non-Toxic

Q: What about the Efficacy [3] of the same molecule?
A: 107%

Q: And the Activity [13]?
A: Active

Q: And the Activity [14]?
A: Active

Q: And the Efficacy [4]?
A: 95%

Q: And the Activity [7]?
A: Non-Toxic

Q: And the Activity [8]?
A: Non-Toxic

Q: And the Activity [15]?
A: Non-Toxic

Q: And the viability at 24 h, 30 µM [16]?
A: 73.4%

Q: And the Activity [1]?
A: inactive

Q: What about the IC50 [10] of the same molecule?
A: 4.9 µM

Q: And the Activity [17]?
A: inactive

Q: What about the Activity [18] of the same molecule?
A: Active

Q: What about the Activity [19] of the same molecule?
A: Active

Q: And the viability at 24 h, 30 µM [20]?
A: 89.2%

Q: What about the EC50 ([2]; read-out: EC50) of the same molecule?
A: 0.084 µM

Q: And the Activity [11]?
A: Active

Q: And the EC50 ([5]; read-out: EC50)?
A: 0.184 µM

Q: And the Activity [21]?
A: inactive

Q: And the Activity [22]?
A: inactive

Q: Which Efficacy [3] does the source give for `CCCOC(=O)/C(C)=C/CC/C(C)=C/CC[C@]1(C)CCc2cc(O)cc(C)c2O1` here?
A: 49%

Q: What about the Efficacy [4] of the same molecule?
A: 86%

Q: What about the EC50 ([2]; read-out: EC50) of the same molecule?
A: 0.991 µM

Q: Which Efficacy [3] does the source give for `COC(=O)COC(=O)/C(C)=C/CC/C(C)=C/CC[C@]1(C)CCc2cc(OC(=O)c3ccccc3)cc(C)c2O1` here?
A: 14%

Q: Which Efficacy [3] does the source give for `C/C(=C\CC[C@]1(C)CCc2cc(OCC(N)=O)cc(C)c2O1)CC/C=C(\C)C(=O)OCc1ccccc1` here?
A: 18%

Q: Which Efficacy [3] does the source give for `COc1cc(C)c2c(c1)CC[C@@](C)(CC/C=C(\C)CC/C=C(\C)C(=O)O)O2` here?
A: 82%

Q: And the Efficacy [4]?
A: 55%

Q: What about the Activity [23] of the same molecule?
A: Toxic

Q: What about the Activity [24] of the same molecule?
A: Toxic

Q: And the EC50 ([2]; read-out: EC50)?
A: 1 µM

Q: What about the EC50 ([5]; read-out: EC50) of the same molecule?
A: 1 µM

Q: With `CC1=C(/C=C/C(C)=C\C=C\C(C)=C\C(=O)O)C(C)(C)CCC1` as the molecule, how does the Efficacy [3] read?
A: inactive

Q: With `Cc1cc(SCc2sc(-c3ccc(C(F)(F)F)cc3)nc2C)ccc1OCC(=O)O` as the molecule, how does the Efficacy [3] read?
A: inactive

Q: Which Efficacy [3] does the source give for `COC(=O)C(OC(=O)/C(C)=C/CC/C(C)=C/CC[C@]1(C)CCc2cc(OC)cc(C)c2O1)C(=O)OC` here?
A: 76%

Q: What about the Efficacy [4] of the same molecule?
A: 37%

Q: What about the EC50 ([5]; read-out: EC50) of the same molecule?
A: 1.62 µM

Q: What does the source list for `COC(=O)/C(C)=C/CC/C(C)=C/CC[C@]1(C)CCc2cc(O)cc(C)c2O1`?
A: Efficacy [3]: 27%; Efficacy [4]: 35%

Q: Which results are given for `COC(=O)COC(=O)/C(C)=C/CC/C(C)=C/CC[C@]1(C)CCc2cc(OC)cc(C)c2O1`?
A: Efficacy [3]: 39%; Efficacy [4]: 24%

Q: For `C/C(=C\CC[C@]1(C)CCc2cc(OCc3ccccc3)cc(C)c2O1)CC/C=C(\C)C(=O)OCc1ccccc1`, which Efficacy [3] is on record?
A: 28%
